# System: S. aureus clinical isolates and S. aureus ATCC 29213
# Experiment: MIC assay according to CLSI criteria, Example 2, S. aureus strains
# Type: cell-based, Staphylococcus aureus
# Details: Staphylococcus aureus
# In short: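 S. aureus grown aerobically in cation-adjusted Mueller Hinton broth at 37° C. Exponential-phase cultures inoculated at about 5×10^5 cells per well, then incubated 18 hours at 37° C.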
smiles,measurement,setting,value
CN[C@H](CC(C)C)C(=O)N[C@H]1C(=O)N[C@@H](CC(N)=O)C(=O)N[C@H]2C(=O)N[C@H]3C(=O)N[C@H](C(=O)N[C@H](C(=O)O)c4cc(O)cc(O)c4-c4cc3ccc4O)[C@H](O)c3ccc(c(Cl)c3)Oc3cc2cc(c3O[C@@H]2O[C@H](CO)[C@@H](O)[C@H](O)[C@H]2O[C@H]2C[C@](C)(N)[C@H](O)[C@H](C)O2)Oc2ccc(cc2Cl)[C@H]1O [Vancomycin],MIC,"ATCC 29213 / MRSA, strain MRSA 15",2 µg/mL
same,MIC,"ATCC 29213 / MRSA, strain MRSA 16",1 µg/mL
same,MIC,"ATCC 29213 / MRSA, strain MRSA 17",2 µg/mL
same,MIC,"ATCC 29213 / MRSA, strain MRSA 18",1 µg/mL
same,MIC,"ATCC 29213 / MRSA, strain MRSA 19",1 µg/mL
same,MIC,"ATCC 29213 / MRSA, strain MRSA 20",1 µg/mL
same,MIC,"ATCC 29213 / MRSA, strain MRSA 21",1 µg/mL
same,MIC,"ATCC 29213 / MRSA, strain MRSA 22",0.5 µg/mL
same,MIC,"ATCC 29213 / MRSA, strain MRSA 23",1 µg/mL
same,MIC,"ATCC 29213 / MRSA, strain MRSA 24",2 µg/mL
same,MIC,"ATCC 29213 / MRSA, strain MRSA 25",1 µg/mL
same,MIC,"ATCC 29213 / MRSA, strain MRSA 26",1 µg/mL
same,MIC,"ATCC 29213 / MRSA, strain MRSA 27",1 µg/mL
same,MIC,"ATCC 29213 / MRSA, strain MRSA 27b",1 µg/mL
same,MIC,"ATCC 29213 / MRSA, strain MRSA 28",1 µg/mL
same,MIC,"ATCC 29213 / MRSA, strain MRSA 29",1 µg/mL
same,MIC,"ATCC 29213 / MRSA, strain MRSA 30",1 µg/mL
same,MIC,"ATCC 29213 / MRSA, strain MRSA 31",1 µg/mL
same,MIC,"ATCC 29213 / MRSA, strain MRSA 32",1 µg/mL
same,MIC,"ATCC 29213 / MRSA, strain MRSA 33",1 µg/mL
same,MIC,"ATCC 29213 / MRSA, strain MRSA 34",1 µg/mL
same,MIC,"ATCC 29213 / MRSA, strain MRSA 35",1 µg/mL
same,MIC,"ATCC 29213 / MRSA, strain MRSA 36",1 µg/mL
same,MIC,"ATCC 29213 / MRSA, strain MRSA 37",1 µg/mL
same,MIC,"ATCC 29213 / MRSA, strain MRSA 38",1 µg/mL
same,MIC,"ATCC 29213 / MRSA, strain MRSA 39",1 µg/mL
same,MIC,"ATCC 29213 / MRSA, strain MRSA 40",1 µg/mL
same,MIC,"ATCC 29213 / MRSA, strain MRSA 41",1 µg/mL
same,MIC,"ATCC 29213 / MRSA, strain MRSA 42",1 µg/mL
same,MIC,"ATCC 29213 / MRSA, strain MRSA 43",1 µg/mL
same,MIC,"ATCC 29213 / MRSA, strain MRSA 44",1 µg/mL
same,MIC,"ATCC 29213 / MRSA, strain MRSA 45",1 µg/mL
same,MIC,"ATCC 29213 / MRSA, strain MRSA 46",1 µg/mL
same,MIC,"ATCC 29213 / MRSA, strain MRSA 47",0.5 µg/mL
same,MIC,"ATCC 29213 / MRSA, strain MRSA 48",0.5 µg/mL
same,MIC,"ATCC 29213 / MRSA, strain MRSA 49",2 µg/mL
same,MIC,"ATCC 29213 / MRSA, strain MRSA 50",1 µg/mL
same,MIC,"ATCC 29213 / MRSA, strain MRSA 51",1 µg/mL
same,MIC,"ATCC 29213 / MRSA, strain MRSA 52",1 µg/mL
same,MIC,"ATCC 29213 / MRSA, strain MRSA 53",1 µg/mL
same,MIC,"ATCC 29213 / MRSA, strain MRSA 54",2 µg/mL
same,MIC,"ATCC 29213 / MRSA, strain MRSA 55",0.5 µg/mL
same,MIC,"ATCC 29213 / MRSA, strain MRSA 56",1 µg/mL
same,MIC,"ATCC 29213 / MRSA, strain MRSA 57",1 µg/mL
same,MIC,"ATCC 29213 / MRSA, strain MRSA 58",1 µg/mL
same,MIC,"ATCC 29213 / MRSA, strain MRSA 59",1 µg/mL
same,MIC,"ATCC 29213 / MRSA, strain MRSA 60",0.5 µg/mL
same,MIC,"ATCC 29213 / MRSA, strain MRSA 61",2 µg/mL
same,MIC,"ATCC 29213 / MRSA, strain MRSA 62",2 µg/mL
same,MIC,"ATCC 29213 / MRSA, strain MRSA 63",1 µg/mL
same,MIC,"ATCC 29213 / MRSA, strain MRSA 64",1 µg/mL
same,MIC,"ATCC 29213 / MRSA, strain MRSA 65",1 µg/mL
same,MIC,"ATCC 29213 / MRSA, strain MRSA 66",1 µg/mL
same,MIC,"ATCC 29213 / MRSA, strain MRSA 67",1 µg/mL
same,MIC,"ATCC 29213 / MRSA, strain MRSA 68",1 µg/mL
same,MIC,"ATCC 29213 / MRSA, strain MRSA 69",1 µg/mL
same,MIC,"ATCC 29213 / MRSA, strain MRSA 70",1 µg/mL
same,MIC,"ATCC 29213 / MRSA, strain MRSA 71",1 µg/mL
same,MIC,"ATCC 29213 / MRSA, strain MRSA 72",1 µg/mL
same,MIC,"ATCC 29213 / MRSA, strain MRSA 73",1 µg/mL
same,MIC,"ATCC 29213 / MRSA, strain MRSA 74",2 µg/mL
same,MIC,"ATCC 29213 / MRSA, strain MRSA 75",1 µg/mL
same,MIC,"ATCC 29213 / MRSA, strain MRSA 76",1 µg/mL
same,MIC,"ATCC 29213 / MRSA, strain MRSA 77",2 µg/mL
same,MIC,"ATCC 29213 / MRSA, strain MRSA 78",1 µg/mL
same,MIC,"ATCC 29213 / MRSA, strain MRSA 79",1 µg/mL
same,MIC,"ATCC 29213 / MRSA, strain MRSA 80",1 µg/mL
same,MIC,"ATCC 29213 / MRSA, strain MRSA 81",1 µg/mL
same,MIC,"ATCC 29213 / MRSA, strain MRSA 82",2 µg/mL
same,MIC,"ATCC 29213 / MRSA, strain MRSA 83",1 µg/mL
same,MIC,"ATCC 29213 / MRSA, strain MRSA 84",2 µg/mL
same,MIC,"ATCC 29213 / MRSA, strain MRSA 85",1 µg/mL
same,MIC,"ATCC 29213 / MRSA, strain MRSA 86",2 µg/mL
same,MIC,"ATCC 29213 / MRSA, strain MRSA 87",1 µg/mL
same,MIC,"ATCC 29213 / MRSA, strain MRSA 88",1 µg/mL
same,MIC,"ATCC 29213 / MRSA, strain MRSA 89",1 µg/mL
same,MIC,"ATCC 29213 / MRSA, strain MRSA 90",1 µg/mL
same,MIC,"ATCC 29213 / MRSA, strain MRSA 91",1 µg/mL
same,MIC,"ATCC 29213 / MRSA, strain MRSA 92",1 µg/mL
same,MIC,"ATCC 29213 / MRSA, strain MRSA 93",2 µg/mL
same,MIC,"ATCC 29213 / MRSA, strain MRSA 94",2 µg/mL
same,MIC,"ATCC 29213 / MRSA, strain MRSA 95",2 µg/mL
same,MIC,"ATCC 29213 / MRSA, strain MRSA 96",1 µg/mL
same,MIC,"ATCC 29213 / MRSA, strain MRSA 97",1 µg/mL
same,MIC,"ATCC 29213 / MRSA, strain MRSA 98",1 µg/mL
same,MIC,"ATCC 29213 / MRSA, strain MRSA 99",1 µg/mL
same,MIC,"ATCC 29213 / MRSA, strain MRSA 100",1 µg/mL
same,MIC,"ATCC 29213 / MRSA, strain MRSA 101",1 µg/mL
same,MIC,"ATCC 29213 / MRSA, strain MRSA 102",2 µg/mL
same,MIC,"ATCC 29213 / MRSA, strain MRSA 103",1 µg/mL
same,MIC,"ATCC 29213 / MRSA, strain MRSA 104",1 µg/mL
same,MIC,"ATCC 29213 / MRSA, strain MRSA 105",1 µg/mL
same,MIC,"ATCC 29213 / MRSA, strain MRSA 106",1 µg/mL
same,MIC,"ATCC 29213 / MRSA, strain MRSA 107",2 µg/mL
same,MIC,"ATCC 29213 / MRSA, strain MRSA 108",1 µg/mL
same,MIC,"ATCC 29213 / MRSA, strain MRSA 109",1 µg/mL
same,MIC,"ATCC 29213 / MRSA, strain MRSA 110",1 µg/mL
same,MIC,"ATCC 29213 / MRSA, strain MRSA 111",1 µg/mL
same,MIC,"ATCC 29213 / MRSA, strain MRSA 112",1 µg/mL
same,MIC,"ATCC 29213 / MRSA, strain MRSA 113",1 µg/mL
same,MIC,"ATCC 29213 / MSSA, strain MSSA 01",1 µg/mL
same,MIC,"ATCC 29213 / MSSA, strain MSSA 02",1 µg/mL
same,MIC,"ATCC 29213 / NEWMAN, strain Newman",2 µg/mL

# From US11331327B2, “Antibacterial use of halogenated salicylanilides” (UNION therapeutics A/S, priority 2014, dated 2022)
